# Structures can show the parent of a compound that is named as a salt.
# Tested on: SB.msgc-1
# Experiment: AC50 for growth inhibition (viability) (log10 M); higher = less potent
# Conditions: SB.msgc-1 (sporadic gastric cancer)
# Method in brief: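 Compound dissolved in DMSO was transferred by pintool, 23 nL per 1536 well, onto 500 hereditary or sporadic patient-derived gastric cancer cells in 5 μL medium. The series spanned 11 threefold dilutions, the highest at a final 46 μM. At 48 h, a 30 min room-temperature incubation with CellTiter-Glo preceded luminescence measurement on a ViewLux. The log half-maximal activity concentration was fitted by a four-parameter model to DMSO-normalised viability, with only high-quality curve classes accepted.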
row,SMILES,AC50 for growth inhibition (log10 M)
1,CC1(COc2ccc3c(c2)ncn3-c2ccc3cccc(N4CCC(N)CC4)c3n2)COC1 [Crenolanib],-7.38
2,Cc1ccccc1C(C(=O)NC1CCCC1)N(C(=O)Cn1cnc2ccccc21)c1cccc(F)c1 (stereo not given),-4.63
3,C/C(=N\NC(=S)N1CCC1)c1ccccn1,-5.73
4,Fc1ccc(CNc2ncnc3ccc(F)cc23)cc1 [Spautin-1],-5.48
5,COc1cc(NCc2ccc3nc(N)nc(N)c3c2C)cc(OC)c1OC [Trimetrexate],-5.83
6,Cc1cc2c(cc1C1(c3ccc(C(=O)O)cn3)CC1)C(C)(C)CCC2(C)C,-4.73
7,NCC1CCC(C(=O)O)CC1 (stereo not given) [Tranexamic acid],-5.18
8,COC1CCC(CC1)N(C(=O)C2CCC(C)CC2)C3=C(SC(=C3)\C4=C\CCCC4)C(O)=O (stereo not given) [VCH-916],-5.28
9,CN(C)C(=O)C(CCN1CCC(O)(c2ccc(Cl)cc2)CC1)(c1ccccc1)c1ccccc1 [Loperamide hydrochloride],-4.78
10,CC(C(=O)O)c1cccc(C(=O)c2ccccc2)c1 (stereo not given) [Ketoprofen],-5.03
11,Nc1cccc([S+](=O)([O-])N2CCCN([S+](=O)([O-])c3ccc4c(c3)OCCO4)CC2)c1,-4.88
12,NC(=O)[C@@H](CCC(F)(F)F)N(Cc1ccc(-c2ncon2)cc1F)[S+](=O)([O-])c1ccc(Cl)cc1 [Avagacestat],-4.83
13,O=C1Nc2ccccc2/C1=C1\Nc2ccccc2C1=O [Indirubin],-5.18
14,COc1cc(OC2CCN(C)CC2)ccc1Nc1ncc2c(n1)n(C1CCCC1)c(=O)n2C [AZ-3146],-4.78
15,OCCC#Cc1nc(-c2ccc(F)cc2)c(-c2ccncc2)n1CCCc1ccccc1,-4.68
16,CCCNC(=O)Nc1ccc(Oc2ncnc3cc(OC)c(OC)cc23)cc1Cl [KRN-633],-4.68
17,Cn1cc(/C=C/C(=O)c2cccc(F)c2)cc1/C=C/C(=O)NO [MC-1568],-4.88
18,CCOC(=O)c1c(CSc2ccccc2)n(C)c2cc(Br)c(O)c(CN(C)C)c12 [Arbidol],-4.63
19,CN1C(=O)C(=C\C2=C1N=C(NC3=CC=CC(=C3)C(O)=O)N=C2)/C4=C(Cl)C=CC=C4Cl,-5.78
20,O=C(O)/C=C/c1ccc(O)c(O)c1 [Caffeic acid],-4.88
21,CN(C)CCN(Cc1ccc(Cl)cc1)c1ccccn1.Cl [Halopyramine],-4.68
22,Cc1cccc(C)c1OCC(=O)N[C@@H](Cc1ccccc1)[C@@H](O)C[C@H](Cc1ccccc1)NC(=O)[C@H](C(C)C)N1CCCNC1=O [Lopinavir],-4.73
23,COc1ccc2c(c1)CN(C)CC2c1ccc(Cl)c(Cl)c1 (stereo not given) [Diclofensine],-4.73
24,CC1COC2(CCN(CC2)C/3=N/C(=O)C4=CC(=CC(=C4S3)[N+]([O-])=O)C(F)(F)F)O1 (stereo not given),-4.78
25,O=C(O)c1ccc2c(c1)nc(Nc1cccc(Cl)c1)c1ccncc12 [Silmitasertib],-4.93
26,CC(=O)O[C@@]1(CC[C@H]2[C@@H]3\C=C(C)/C4=C/C(=O)CC[C@]4(C)[C@H]3CC[C@]12C)C(C)=O [Megestrol acetate],-5.23
27,COc1cc(N2CCN(C)CC2)ccc1Nc1nc(N)c(C(=O)c2c(Cl)cccc2Cl)s1,-5.18
28,COC(=O)Nc1ccc(-c2nc(N3CCOCC3)c3cnn(C4CCN(C(=O)OC)CC4)c3n2)cc1 [WYE-354],-6.03
29,NC(=O)c1ccc(-c2nc(-c3ccc4c(c3)OCCO4)c(-c3ccccn3)[nH]2)cc1 [D-4476],-4.73
30,c1cc(N[C@@H]2CCNC2)nc(-c2cnc3ccc(-c4cn[nH]c4)cn23)c1,-4.68

# Reference: the supplement of paper PMC5412046
